Data as given in patent publication US9428552B2, “Stem cell mobilization and tissue repair and regeneration” (Wellstat Therapeutics Corporation, priority 2012, dated 2016).
“Also recorded” adds a separate entry of the source. Ends that are not written are not given here. Peptide text beside a SMILES is read from it.

Key:
CFU-GEMM [1] = assay: Effect of S1P gradient disruption (DOP) on mobilization after multiple subcutaneous injections; assay type: in vivo; conditions: DBA/2J mice, DOP in glucose drinking water
Description: In this experiment the inhibitor of S1P lyase activity, 4-deoxypyridoxine (DOP, Sigma-Aldrich) was administrated to mice in the drinking water in order to test if disruption of S1P gradient has an effect on mobilization induced by Compound A. Fifteen week-old DBA/2J male mice (Jackson Laboratories) were divided into 4 groups of 4 mice each. All Mice received glucose drinking water (10 g/L) throughout the duration of the study. DOP ([…]) was added to the glucose water of two groups. Mice were subcutaneously injected for four consecutive days with 500 μg/kg of Compound A or Saline. At one-hour post injections on day 4, peripheral blood from mice was harvested from the orbital plexus using capillary tubes (VWR) and collected into EDTA-containing tubes (BD). To determine mobilization of colony-forming unit cells out of the peripheral blood, mononuclear cells were plated in mouse methylcellulose complete media (R&D Systems). The cells were placed into 35-mm Petri dishes at 100,000 cells per dish with 5 dishes per group. Cells incubated for 11 days in a 37° C. and 5% CO2 humidified incubator. CFU colonies were then scored using an inverted microscope.

hindlimb ischemia = assay: Unilateral hindlimb ischemia by femoral artery ligation; assay type: in vivo; conditions: C57/BL6 mice, day 9; peptide 250 μg/kg s.c., DFO 100 mg/kg i.m.
Description: Ligation of the femoral artery in mice is an established model of hindlimb ischemia for testing treatments that might improve revascularization and functional recovery.
A total of 50 C57/B16 8-10 week old female mice were divided into 5 treatment groups (n=10/group).
• 1. Vehicle Control • 2. DFO (intramuscular) DFO (desferrioxamine) has been reported to improve revascularization by augmenting HIF-1α activation in sites of damage, to elicit secretion of local angiogenic factors and chemotactic signals that attract circulating repair-promoting stem and progenitor cells) • 3. DFO (intramuscular)+Compound C (subcutaneous) • 4. Compound A (subcutaneous) • 5. DFO (intramuscular)+Compound A (subcutaneous)
Mice were subjected to unilateral total ligation and transection of the femoral artery under anesthesia (2% Isoflurane mixed with 100% oxygen). A unilateral incision was made over the left medial thigh of each mouse. […]
On day 0, 4, 9, and 14, the condition of left hind limbs were evaluated with Muscle Function Score and Ischemia Score. […]
Recovery of circulation and function in the hindlimb ischemia model involves angiogenesis and revascularization, a process triggered by oxygen deficits. Revascularization was evaluated on day 14 after artery ligation by counting capillaries in cross sectional histology slides prepared from gastrocnemius muscles from both legs. […]

murine recombinant DPPIV = murine recombinant DPPIV (Mus musculus, UniProt P28843); assay: Hydrolysis of N-terminal by recombinant DPPIV; assay type: in vitro ADME; conditions: previously shown
[2] = Cleavage of peptide during 3 hr incubation with murine bone marrow cells (HPLC, MS); assay type: in vitro ADME; conditions: 100 μg/ml, 37° C., absence of serum
Description: B6D2F1 mice (HSD) were treated with 100 mg/kg testosterone propionate 24 hr before being sacrificed, femurs were removed and bone marrow cells (BMC) were flushed from bone marrow cavity. BMC—5×10^6 cells/ml was resuspended in IMDM. Cell suspension was placed into 14-ml Falcon tubes (BD). Peptide Compound A, (Think Peptides) was added to cells at 100 μg/ml concentration. The appropriate volume of IMDM was added to another control supernatant tube containing 1 ml of cells. Cells were incubated for 3 hours at 37° C. After 3 hours of incubation, tubes were centrifuged, supernatants were collected and proteins with Mw>10 KD were eliminated by Amicon filtration at 3000 rpm 25 minutes. 0.5 ml of supernatant containing <10 Kd material was collected from each sample and heat inactivated during 10 min at t-70° C. The following samples were prepared for HPLC and MS: Control supernatant (<10 Kd); Supernatant from cells incubated with Compound A (<10 Kd); Compound A (50 μL) spiked into cell culture medium; and Compound C (50 μL) spiked into cell culture medium.

human recombinant DPPIV = human recombinant DPPIV (Homo sapiens, UniProt P27487); assay: Hydrolysis of N-terminal by recombinant DPPIV; assay type: in vitro ADME; conditions: previously shown
EML-Cl cells = assay: CFU-GEMM number of EML cells after 3 hr serum and SCF deprivation; assay type: cell-based, murine; conditions: for rescue of CFU-GEMM: serum and SCF deprivation, 10 μM
Description: Erythroid myeloid lymphoid (EML) cells are an established multipotent hematopoietic precursor cell line (EML-Cl) that can be maintained in medium including stem cell factor (SCF) and Horse serum (HS). When plated in methylcellulose with cocktail of growth factors EML cells form mixed colonies (CFUmix or CFU-GEMM) containing a mix of erythroid and myeloid cells that can be enumerated after 7 days of incubation.
Starvation of EML-Cl cell line cells of serum and SCF during 3 hr causes majority of CFUmix to develop apoptosis and die, which decreases their number growing in methylcellulose substantially.
EML cells were grown in IMDM with 10% HS and 100 ng/ml of SCF in IMDM and used for all experiments in exponential growth phase.
Cells were washed from serum and growth factor with IMDM two times, counted and placed into 12 ml polypropylene tubes 2×10^6 cells in 2 ml for 3 hr incubation at t-37° C. and 5% CO2.
Cell suspensions after the incubation were centrifuged, diluted 5 times with IMDM and counted using a hemacytometer. Cells were adjusted to 10^3 cells/mL in IMDM and cell suspension was placed into 50 mL tubes with 4.5 mL of Methylcellulose M3434 mixed well and seeded into 35-mm Petri dishes (Falcon BD351008) at 1 mL/dish. Cells were incubated at 37° C., 5% CO2.
CFU were scored using an inverted microscope after 7 days of incubation.

Caspase-3 = Caspase-3 fluorimetric assay in EML cell lysates after HS and SCF deprivation; assay type: cell-based, murine; conditions: for Caspase-3 proteolytic activity, Exp 1 / Caspase-3 proteolytic activity, Exp 2 / Caspase-3 proteolytic activity, Exp 3 / Caspase-3 proteolytic activity, Sum of 3 experiments: 10 μM present during starvation, starvation control 100%; for Caspase-3 activation induced by HS and SCF deprivation: EML cells, peptide present during starvation
Description: To assess possible effect of Compound A and other peptides on Caspase-3 enzymatic activity during apoptosis induced by serum starvation fluorimetric assay Caspase-3 assay was performed according to the manufacturer's instructions (ApoAlert Clontech Mountain view CA).
Cell suspensions after the incubation were divided into two equal tubes (+/−Caspase inhibitor). Cells were centrifuged at 400×g for 5 min and re-suspend in chilled Cell Lysis Buffer with the following incubation on ice for 10 min., cell lysates were centrifugated in a microcentrifuge at max speed for 10 min at 4° C. and transferred into new tubes.
50 μl of 2× Reaction buffer/DTT mix and 1 μl of Caspase inhibitor added to 50 μl of cell lysate (+Inhibitor groups). 1 uL DMSO per 50 μL of 2× Reaction buffer was added to samples without inhibitor.
5 μL of the 1 mM Caspase-3 Substrate (DEVD-AFC; 50 μM final concentration) were added to each tube and incubated at t-37° C. for 1 hr in a water bath. All samples in duplicates were transferred to a 96 well plate. The plates were analyzed on a fluorescence plate reader (Spectramax Gemini.) at a 400 nm excitation and a 505 nm emission, and Caspase-3 activity was expressed relative to the medium control. Free AFC accumulation that resulted from cleavage of the asparatic-AFC bond monitored by fluorimeter and results in duplicates were recalculated according to the free AFC calibration curve.

THP-1 cells = assay: Cytokine production by THP-1 cells in response to LPS; assay type: cell-based; conditions: 4 hours, levels ranging from 1 μM down to 10 nM
Description: THP-1 cells activated with 0.2 μM vitamin-D3 (EMD Biosciences Inc) and cultured in cRPMI [RPMI plus 10% ΔFBS (both Lonza)] were transferred to 24-well dishes. Different concentrations of Compound A or related peptides were added (in triplicate) and the plate placed in a 37° C. incubator.
After 1 hour, crude-LPS from E. coli 0111:B4 (20 ng-100 ng/ml final conc) was added to some wells. Supernatant aliquots were taken after 4 hours and cytokine levels determined using a cytokine bead array kit (BD558277).

CFU-GEMM [3] = assay: Mobilization of CFU-GEMM and CFU-GM in db/db mice with high glucose level; assay type: in vivo; conditions: 5 mg/kg s.c.
Description: To test mobilizing effect of Compound A in db/db mice with high level of glucose the following experiment was conducted. BKS.Cg-Dock7m+/+Leprdb/J male mice (10 weeks old Jackson Laboratories, stock #000642) were subcutaneously injected with 0.9% saline (vehicle control), 5 mg/kg Compound C, or 10 mg/kg Compound A (ThinkPeptides) for 5 consecutive days. At 7 days post initial injection, peripheral blood from 3 mice per group was harvested from the orbital plexus using capillary tubes (VWR) and collected into EDTA-containing tubes (BD).

[4] = tested on: hematopoietic stem cells (HSC) and their hematopoietic progenitors (HPC); assay: Mobilization of stem cells into peripheral blood after single subcutaneous injection (colony-forming assay); assay type: in vivo; conditions: DBA/2J mice, single 125 μg/kg dose, within one hour of administration
Description: Stimulatory doses of Compound A activate quiescent stem cells, induce them to proliferate and egress from bone marrow into peripheral blood. […]
After 1 hour, mice were anesthetized and blood was collected through the orbital sinus with heparinized capillary tubes. To enumerate HSC and HPC in peripheral blood, cells were washed, counted and plated in semi-solid Methylcellulose (Stem cell technology) at 100,000 per dish (5 dishes/group) and placed in CO2 incubator at 37° C. Colony-forming unit-granulocyte erythroid macrophage megakaryocyte (CFU-GEMM) and Colony-forming unit-granulocyte macrophage (CFU-GM) were detected under inverted microscope after 7-10 days in culture.

CFU-GEMM and CFU-GM = assay: Mobilization of stem cells into peripheral blood after multiple subcutaneous injections; assay type: in vivo, mice; conditions: dose response
Description: This example is based on a protocol for a 5-day course of once-daily Compound A injections into DBA male mice similar to a G-CSF. […]
[…] At 7 days post initial injection, peripheral blood from 3 mice per group was harvested from the orbital plexus using capillary tubes (VWR) and collected into EDTA-containing tubes (VWR). Blood was also harvested and pooled from 3 naïve mice to serve as a naïve control group.

murine recombinant DPPIV, sequence (P28843 whole entry): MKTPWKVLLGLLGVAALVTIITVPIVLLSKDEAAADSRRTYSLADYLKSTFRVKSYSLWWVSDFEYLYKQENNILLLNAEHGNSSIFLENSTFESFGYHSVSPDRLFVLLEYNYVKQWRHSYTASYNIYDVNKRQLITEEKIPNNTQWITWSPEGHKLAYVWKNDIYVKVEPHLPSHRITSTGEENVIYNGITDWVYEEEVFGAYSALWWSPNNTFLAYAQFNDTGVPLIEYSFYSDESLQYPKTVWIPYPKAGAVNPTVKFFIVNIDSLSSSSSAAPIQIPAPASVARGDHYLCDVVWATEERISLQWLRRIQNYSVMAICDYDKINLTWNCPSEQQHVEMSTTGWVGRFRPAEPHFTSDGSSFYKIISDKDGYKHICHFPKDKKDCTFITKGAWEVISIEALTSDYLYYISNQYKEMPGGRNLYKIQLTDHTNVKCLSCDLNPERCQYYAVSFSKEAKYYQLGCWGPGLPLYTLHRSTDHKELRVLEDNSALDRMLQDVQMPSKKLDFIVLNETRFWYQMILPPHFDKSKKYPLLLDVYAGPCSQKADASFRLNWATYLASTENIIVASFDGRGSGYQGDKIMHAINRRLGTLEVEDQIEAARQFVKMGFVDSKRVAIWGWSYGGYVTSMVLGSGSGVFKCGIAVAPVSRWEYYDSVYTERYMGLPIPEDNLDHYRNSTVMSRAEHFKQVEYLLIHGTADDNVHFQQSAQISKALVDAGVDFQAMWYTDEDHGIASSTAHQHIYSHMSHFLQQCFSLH
human recombinant DPPIV, sequence (P27487 whole entry): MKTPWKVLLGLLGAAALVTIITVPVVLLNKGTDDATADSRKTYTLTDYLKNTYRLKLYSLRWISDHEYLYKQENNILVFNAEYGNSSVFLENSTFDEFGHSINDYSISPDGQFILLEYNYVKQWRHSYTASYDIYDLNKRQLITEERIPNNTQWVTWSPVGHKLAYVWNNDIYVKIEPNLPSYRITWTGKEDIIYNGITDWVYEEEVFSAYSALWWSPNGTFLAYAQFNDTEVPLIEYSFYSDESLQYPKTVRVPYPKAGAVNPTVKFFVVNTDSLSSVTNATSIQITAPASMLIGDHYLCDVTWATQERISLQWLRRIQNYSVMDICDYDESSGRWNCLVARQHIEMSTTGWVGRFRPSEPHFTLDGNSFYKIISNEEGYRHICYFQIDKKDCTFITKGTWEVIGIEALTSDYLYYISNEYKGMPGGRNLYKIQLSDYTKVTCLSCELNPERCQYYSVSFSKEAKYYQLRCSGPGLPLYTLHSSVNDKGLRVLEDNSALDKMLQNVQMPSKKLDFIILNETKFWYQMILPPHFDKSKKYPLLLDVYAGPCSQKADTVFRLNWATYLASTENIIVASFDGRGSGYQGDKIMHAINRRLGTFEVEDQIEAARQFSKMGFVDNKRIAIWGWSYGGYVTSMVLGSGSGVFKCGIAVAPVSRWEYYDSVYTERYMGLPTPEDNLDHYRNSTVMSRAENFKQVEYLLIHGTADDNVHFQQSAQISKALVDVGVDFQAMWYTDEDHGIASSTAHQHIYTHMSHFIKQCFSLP

Cc1ncc(CO)c(C)c1O [DOP, 4-deoxypyridoxine]
mobilization of colony forming cells into peripheral blood (CFU-GEMM [1]): decreased mobilization

CC(=O)N(O)CCCCCNC(=O)CCC(=O)N(O)CCCCCNC(=O)CCC(=O)N(O)CCCCCN [DFO, desferrioxamine]
Muscle Function Score (hindlimb ischemia): maintained impairment

CC(C)C[C@H](NC(=O)[C@H](CC(=O)O)NC(=O)[C@H](Cc1ccccc1)NC(=O)[C@H](Cc1c[nH]cn1)NC(=O)[C@@H]1CCCN1C(=O)[C@@H](N)Cc1ccccc1)C(=O)N[C@@H](CO)C(=O)N[C@@H](Cc1c[nH]cn1)C(=O)NCC(=O)N[C@@H](CO)C(=O)N[C@@H](C)C(=O)N[C@@H](CCC(N)=O)C(=O)N[C@H](C(=O)N[C@@H](CO)C(=O)N[C@@H](CC(=O)O)C(=O)N[C@@H](CCCCN)C(=O)N1CCC[C@H]1C(=O)O)C(C)C [Compound A, Phe-Pro-His-Phe-Asp-Leu-Ser-His-Gly-Ser-Ala-Gln-Val-Ser-Asp-Lys-Pro] (H-FPHFDLSHGSAQVSDKP-OH; N-terminus and C-terminus assumed)
hydrolysis of N-terminal by murine recombinant DPPIV (murine recombinant DPPIV): can be hydrolyzed
cleavage after incubation with murine bone marrow cells [2]: proteolyses of the peptide was registered
hydrolysis of N-terminal by human recombinant DPPIV (human recombinant DPPIV): can be hydrolyzed

CCCCCCCCCCCC1N[C@H](C(=O)O)CS1 (stereo partly drawn) [CAY10444]
rescue of CFU-GEMM (EML-Cl cells): rescued CFU-GEMM

CCCCCCCCCCCCC/C=C/[C@@H](O)[C@@H](N)COP(=O)(O)O [Compound S1P, Sphingosine 1-phosphate]
rescue of CFU-GEMM (EML-Cl cells): rescued CFU-GEMM

N-acetyl-Ser-Asp-Lys-Pro (Ac-SDKP) [AcSDKP]
Caspase-3 proteolytic activity, Exp 1 (Caspase-3): 70%
Caspase-3 proteolytic activity, Exp 2 (Caspase-3): 84%
Caspase-3 proteolytic activity, Exp 3 (Caspase-3): 65%
Caspase-3 proteolytic activity, Sum of 3 experiments (Caspase-3): 73 +/− 9.8%
Caspase-3 activation induced by HS and SCF deprivation (Caspase-3): prevented Caspase-3 activation
TNFα secretion (THP-1 cells): strongly inhibited

FC(F)(F)c1cccc(-c2noc(-c3cc(-c4ccccc4)c(C(F)(F)F)s3)n2)c1 [SEW2871]
rescue of CFU-GEMM (EML-Cl cells): rescued CFU-GEMM

FPHFDLSHGSAQV [Compound C, included for comparison with the oligopeptides of this invention]
CFU-GEMM / progenitor cell mobilization into peripheral blood (CFU-GEMM [3]): did not cause CFU-GEMM mobilization; also recorded: did not mobilize progenitor cells
increase in CFU-GEMM numbers [4]: two-fold
rescue of colony-forming cells (CFUmix/CFU-GEMM) during starvation (EML-Cl cells; 3 hr HS and SCF deprivation, compared with combined HS and SCF): rescued colony-forming cells
Caspase-3 proteolytic activity, Exp 1 (Caspase-3): 66%
Caspase-3 proteolytic activity, Exp 2 (Caspase-3): 83%
Caspase-3 proteolytic activity, Exp 3 (Caspase-3): 53%
Caspase-3 proteolytic activity, Sum of 3 experiments (Caspase-3): 67.3 +/− 15%
Caspase-3 activation induced by HS and SCF deprivation (Caspase-3): prevented Caspase-3 activation
dose with the best effect on CFU-GEMM mobilization (CFU-GEMM and CFU-GM): 0.75 mg/kg

JTE-013
rescue of CFU-GEMM (EML-Cl cells): rescued CFU-GEMM
